Test results reported in ChEMBL document CHEMBL1201862, “PubChem BioAssay data set” (2004).
The source made the active and inactive calls.

How the values were obtained:
Melanocortin receptor 4 = Melanocortin receptor 4 (Homo sapiens, UniProt P32245); type: functional, cell-based;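 also: Cell-based assay with luminescence read-out, confirmatory dose-response testing for agonist activity of biased ligands at MC4R; human U2OS cells with tagged receptor and beta-arrestin; potency of agonists that increase receptor coupling to beta-arrestin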
[1] = NIH-3T3 fibroblast cytotoxicity, dose response, cytotoxicity control, cell-based, fluorescence, Alamar Blue, secondary assay (AID 2327); type: functional;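 also: NIH-3T3 mouse fibroblasts cultured with fluconazole at 8 µg/mL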
Albumin = Albumin (Bos taurus, UniProt P02769); test: Counterscreen for inhibitors of T-cell receptor (TCR)-CD3 interaction: Fluorescence-based biochemical high throughput dose response assay to identify inhibitors of T-cell receptor (TCR)-CD3 interaction using a TAMRA-labeled BSA probe.; type: functional
ORF 73 = molecular target: T1, ORF 73 (Human herpesvirus 8, UniProt O40947); test: inhibitors of C-LANA binding to LBS DNA, dose response, biochemical, fluorescence polarization, cherry-picked samples (AID 504725); design: species or system Human gammaherpesvirus 8;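 also: fluorescence polarization of a labeled DNA duplex reporting LANA DNA binding; potency is for inhibitors that block LANA binding to the DNA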
T1 sequence (O40947 whole entry): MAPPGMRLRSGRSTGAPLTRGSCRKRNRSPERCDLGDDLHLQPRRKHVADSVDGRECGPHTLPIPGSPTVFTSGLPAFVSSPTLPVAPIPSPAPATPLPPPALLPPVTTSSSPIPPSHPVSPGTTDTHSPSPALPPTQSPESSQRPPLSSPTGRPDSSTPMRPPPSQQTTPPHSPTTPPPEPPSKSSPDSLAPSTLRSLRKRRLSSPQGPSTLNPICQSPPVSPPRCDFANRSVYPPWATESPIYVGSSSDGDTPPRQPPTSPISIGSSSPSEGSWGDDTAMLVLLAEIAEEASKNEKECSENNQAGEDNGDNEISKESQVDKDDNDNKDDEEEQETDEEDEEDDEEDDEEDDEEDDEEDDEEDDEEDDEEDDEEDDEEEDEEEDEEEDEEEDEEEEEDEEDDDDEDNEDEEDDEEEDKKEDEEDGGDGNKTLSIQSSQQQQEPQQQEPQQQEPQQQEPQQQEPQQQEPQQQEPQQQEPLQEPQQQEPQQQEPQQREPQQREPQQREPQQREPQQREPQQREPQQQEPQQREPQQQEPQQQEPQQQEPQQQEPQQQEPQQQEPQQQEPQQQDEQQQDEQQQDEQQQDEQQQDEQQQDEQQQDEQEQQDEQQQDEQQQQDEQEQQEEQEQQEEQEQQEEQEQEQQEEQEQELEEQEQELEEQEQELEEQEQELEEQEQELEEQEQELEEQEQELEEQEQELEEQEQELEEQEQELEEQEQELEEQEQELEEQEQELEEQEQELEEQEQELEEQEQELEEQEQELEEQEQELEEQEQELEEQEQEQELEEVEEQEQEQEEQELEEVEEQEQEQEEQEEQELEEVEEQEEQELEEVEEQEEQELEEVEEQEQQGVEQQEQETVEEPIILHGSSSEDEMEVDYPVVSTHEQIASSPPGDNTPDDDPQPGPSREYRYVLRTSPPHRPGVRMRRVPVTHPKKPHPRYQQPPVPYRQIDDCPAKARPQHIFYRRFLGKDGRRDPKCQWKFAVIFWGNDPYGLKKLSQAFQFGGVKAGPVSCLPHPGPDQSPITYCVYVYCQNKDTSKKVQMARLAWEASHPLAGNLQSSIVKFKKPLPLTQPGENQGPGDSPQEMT

Estrogen receptor beta = Estrogen receptor beta (Homo sapiens, UniProt Q92731); test: ERβ–SRC-3 coactivator interaction inhibitors, confirmation, orthogonal assay, biochemical, ELISA, streptavidin-HRP readout (AID 1060)
[2] = inhibitors of firefly luciferase expression or activity, dose response, H4 neuroglioma cells, luminescence (AID 1990); type: functional, cell-based
[3] = molecular target: Mothers against decapentaplegic homolog 3 (Homo sapiens, UniProt P84022); test: SMAD3 transcription factor inhibitors, dose response (AID 715); type: functional
[4] = molecular target: T2, Tyrosine-protein phosphatase non-receptor type 22 (Homo sapiens, UniProt Q9Y2R2); test: SAR LYP1 Fluorescent Assay using pCAP substrate for In Vitro dose response studies - Set 4. [Related pubchem assays (depositor defined):AID1779, AID1784]; type: functional
T2 sequence (Q9Y2R2 whole entry): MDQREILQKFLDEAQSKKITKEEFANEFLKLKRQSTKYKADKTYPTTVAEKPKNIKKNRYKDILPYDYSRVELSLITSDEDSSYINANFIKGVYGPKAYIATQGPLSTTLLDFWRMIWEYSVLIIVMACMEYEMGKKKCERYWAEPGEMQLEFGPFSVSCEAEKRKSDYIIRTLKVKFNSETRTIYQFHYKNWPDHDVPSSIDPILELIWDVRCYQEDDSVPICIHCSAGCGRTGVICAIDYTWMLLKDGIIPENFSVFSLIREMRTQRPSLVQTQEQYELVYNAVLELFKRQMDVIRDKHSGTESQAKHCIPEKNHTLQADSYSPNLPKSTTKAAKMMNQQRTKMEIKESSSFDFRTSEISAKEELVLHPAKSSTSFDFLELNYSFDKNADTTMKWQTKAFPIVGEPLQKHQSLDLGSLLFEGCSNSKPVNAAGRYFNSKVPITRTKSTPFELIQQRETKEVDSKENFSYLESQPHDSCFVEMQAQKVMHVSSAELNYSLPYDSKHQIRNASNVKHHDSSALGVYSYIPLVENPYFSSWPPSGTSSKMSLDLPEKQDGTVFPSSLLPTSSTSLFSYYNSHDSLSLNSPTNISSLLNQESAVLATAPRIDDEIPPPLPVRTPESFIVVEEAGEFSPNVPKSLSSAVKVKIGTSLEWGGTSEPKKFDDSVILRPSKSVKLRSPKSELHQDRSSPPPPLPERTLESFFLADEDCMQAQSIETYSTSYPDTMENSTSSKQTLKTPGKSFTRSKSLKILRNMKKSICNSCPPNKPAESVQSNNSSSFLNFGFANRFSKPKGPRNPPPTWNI

[5] = molecular target: T2, Tyrosine-protein phosphatase non-receptor type 22; test: SAR LYP1 Fluorescent Assay using OMFP substrate for In Vitro dose response studies - Set 2. [Related pubchem assays (depositor defined):AID1779, AID1784, AID2140, AID449726, AID488869]; type: functional

Estrogen receptor beta, sequence (Q92731 whole entry): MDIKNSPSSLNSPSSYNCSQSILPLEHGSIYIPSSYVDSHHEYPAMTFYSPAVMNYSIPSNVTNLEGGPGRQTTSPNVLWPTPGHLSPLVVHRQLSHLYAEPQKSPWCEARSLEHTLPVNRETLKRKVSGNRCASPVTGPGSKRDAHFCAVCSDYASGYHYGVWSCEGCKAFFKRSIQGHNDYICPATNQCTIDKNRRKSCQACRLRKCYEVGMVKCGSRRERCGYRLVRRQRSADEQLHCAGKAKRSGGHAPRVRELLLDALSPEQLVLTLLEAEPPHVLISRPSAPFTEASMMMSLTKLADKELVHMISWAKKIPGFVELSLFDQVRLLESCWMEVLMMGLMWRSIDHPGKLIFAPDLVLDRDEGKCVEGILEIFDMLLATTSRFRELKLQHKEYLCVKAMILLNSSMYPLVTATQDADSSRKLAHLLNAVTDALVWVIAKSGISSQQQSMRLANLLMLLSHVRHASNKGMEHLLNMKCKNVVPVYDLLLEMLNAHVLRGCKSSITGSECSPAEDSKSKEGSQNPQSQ
Albumin, sequence (P02769 whole entry): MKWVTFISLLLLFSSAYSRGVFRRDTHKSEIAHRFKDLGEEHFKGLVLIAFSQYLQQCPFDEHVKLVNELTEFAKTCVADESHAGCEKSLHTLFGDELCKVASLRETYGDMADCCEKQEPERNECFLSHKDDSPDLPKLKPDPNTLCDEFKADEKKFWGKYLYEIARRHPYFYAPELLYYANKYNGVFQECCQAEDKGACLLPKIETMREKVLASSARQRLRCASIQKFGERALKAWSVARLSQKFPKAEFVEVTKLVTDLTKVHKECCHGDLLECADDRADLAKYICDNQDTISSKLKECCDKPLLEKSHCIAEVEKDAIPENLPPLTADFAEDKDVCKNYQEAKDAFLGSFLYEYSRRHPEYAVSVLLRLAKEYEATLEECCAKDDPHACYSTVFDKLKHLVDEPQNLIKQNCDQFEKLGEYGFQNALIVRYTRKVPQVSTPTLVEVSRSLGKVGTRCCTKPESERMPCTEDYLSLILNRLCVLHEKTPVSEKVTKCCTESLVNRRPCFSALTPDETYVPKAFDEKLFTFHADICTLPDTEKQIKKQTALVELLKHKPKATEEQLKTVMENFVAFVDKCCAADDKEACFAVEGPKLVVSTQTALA
Melanocortin receptor 4, sequence (P32245 whole entry): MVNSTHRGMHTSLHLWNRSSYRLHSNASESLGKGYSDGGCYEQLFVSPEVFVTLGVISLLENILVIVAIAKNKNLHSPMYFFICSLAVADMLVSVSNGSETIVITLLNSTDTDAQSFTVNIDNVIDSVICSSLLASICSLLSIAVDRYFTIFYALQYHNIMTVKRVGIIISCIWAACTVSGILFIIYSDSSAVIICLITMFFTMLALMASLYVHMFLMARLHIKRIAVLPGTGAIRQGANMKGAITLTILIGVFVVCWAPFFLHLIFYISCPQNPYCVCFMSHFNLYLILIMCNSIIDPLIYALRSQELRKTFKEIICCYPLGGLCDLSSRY
Mothers against decapentaplegic homolog 3, sequence (P84022 whole entry): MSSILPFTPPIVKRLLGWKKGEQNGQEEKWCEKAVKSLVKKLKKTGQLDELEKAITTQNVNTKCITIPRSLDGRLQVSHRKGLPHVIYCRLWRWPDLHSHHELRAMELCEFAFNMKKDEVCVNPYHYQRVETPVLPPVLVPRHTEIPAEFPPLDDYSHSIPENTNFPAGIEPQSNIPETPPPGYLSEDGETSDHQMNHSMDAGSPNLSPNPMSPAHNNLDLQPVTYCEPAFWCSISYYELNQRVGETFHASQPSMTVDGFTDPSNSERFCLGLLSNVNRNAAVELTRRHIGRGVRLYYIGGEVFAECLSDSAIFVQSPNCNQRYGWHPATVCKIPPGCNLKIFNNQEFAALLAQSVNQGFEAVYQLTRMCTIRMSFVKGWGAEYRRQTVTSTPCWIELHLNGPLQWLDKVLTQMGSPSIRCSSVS

In the case of `CCN1/C(=C/c2ccc3cc(C)ccc3[n+]2CC)Sc2cc(C)c(C)cc21`, the EC50 (Melanocortin receptor 4) is reported as > 3.3 µM (active) and the EC50 [1] is reported as 9.66 µM (inconclusive).

In the case of `Nc1ccc2nc3c(O)nc(S)nc3nc2c1`, the IC50 (Albumin) is reported as 25.6 µM (inactive) and the AC50 (ORF 73) is reported as 3.62 µM (active).

For `COc1ccc(C(=O)Nc2nc3c(s2)Cc2cc(OC)ccc2-3)cc1`, the IC50 (Estrogen receptor beta) was < 0.023 µM (not active).

For `Cc1oc2c(c1C(=O)c1ccccc1)C(=O)C(=O)c1ccccc1-2`, the EC50 [2] was > 120 µM (not active).

With `O=C1CCCC2=C1C1(O)C(=O)c3ccccc3C1(O)O2` (centres undefined) the IC50 [3] was 2.73 µM (active).

With `O=C(O)COc1ccc(/C=N/NC(=O)c2ccc(-c3csc(Nc4ccc(Cl)cc4)n3)cc2)cc1` the IC50 [4] was 0.527 µM (active) and the IC50 [5] was 1.24 µM (active).
